Assay results taken from patent US10160771B2, “Hepatitis C virus inhibitors and uses thereof in preparation of drugs” (priority 2014, dated 2018).

Tests used:
[1] = Cell Titer-fluor cell activity assay in HCV-1b replicon cells (CC50); assay type: cell-based
Outline: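 Con1 genotype 1b replicon cells (E1202G, T1280I, K1846T adaptive mutations), 8000 cells/well, exposed to 6-point 5-fold dilutions from 100, 10 or 1 nM top concentration in 0.5% DMSO, duplicate wells, 3 days at 37 °C. Viability read by Cell Titer-fluor (Ex 405/Em 515 nm) after 30 min; CC50 from nonlinear fit of inhibition %.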

[2] = tested on: HCV genotype 1a (HCV-1a) replicon cells; experiment: HCV genotype 1a replicon luciferase assay (EC50); assay type: cell-based, hepatitis C virus genotype 1a (H77 clone); conditions: Hepatitis C virus, 72 h, 3 days, luciferase (Bright-Glo)
Outline: (§1)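 Stable subgenomic replicon cells (1a: H77 with K1691R, K2040R, S2204I; 1b: Con1 with E1202G, T1280I, K1846T) carrying luciferase and neo were seeded at 8000 cells/well onto compounds (5-fold, 6-point, top 100, 10 or 1 nM; 0.5% DMSO) for 3 days at 37 °C. Bright-Glo luminescence gave EC50 by nonlinear fit.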

[3] = tested on: HCV genotype 1b (HCV-1b) replicon cells; experiment: HCV genotype 1b replicon luciferase assay (EC50); assay type: cell-based, hepatitis C virus genotype 1b (Con1 clone); conditions: 3 days, luciferase (Bright-Glo)
Outline: as §1

Row | SMILES | CC50 at 3 days [1] [nM] | EC50 [2] [nM] | EC50 ([3]; Hepatitis C virus, 72 h) [nM] | EC50 [3] [nM]
1 | COC(=O)N[C@H](C(=O)N1CCC[C@H]1c1ncc(-c2ccc(-c3ccc(-c4cnc([C@H]5C6CCC(C6)[C@@H]5C(=O)NCc5cccnc5C(F)(F)F)[nH]4)cc3)cc2)[nH]1)C(C)C (stereo partly drawn) [AA_216_A] | > 1 | 10 to 100 | 0.001 to 0.1 | –
2 | COC[C@H](NC(=O)OC)C(=O)N1CCC[C@H]1c1ccc(-c2ccc(-c3ccc(-c4cnc([C@@H]5CCCN5C(=O)[C@H](COC)NC(=O)OC)[nH]4)cc3)cc2)[nH]1 [AG_109] | > 1 | 0.101 to 1 | 0.001 to 0.1 | –
3 | COC(=O)N[C@H](C(=O)N1CCC[C@H]1c1[nH]c(-c2ccc(-c3ccc(-c4[nH]c([C@@H]5CCCN5C(=O)[C@@H](NC(=O)OC)[C@@H](C)OC)c5c4COC5)cc3)cc2)c2c1COC2)[C@@H](C)OC [AG_088_A] | > 1 | 0.101 to 1 | 0.001 to 0.1 | –
4 | COC(=O)N[C@H](C(=O)N1CCC[C@H]1c1ncc(-c2ccc(-c3ccc(-c4cnc(C5C6CCC(C6)[C@H]5C(=O)NC(C)c5cnccn5)[nH]4)cc3)cc2)[nH]1)[C@@H](C)OC (stereo partly drawn) [AA_281_B] | > 1 | 0.101 to 1 | 0.001 to 0.1 | –
5 | COC(=O)N[C@H](C(=O)N1CCC[C@H]1c1ncc(-c2ccc3c(c2)[C@@](C)(O)c2cc(-c4cnc(C5C6CCC(C6)[C@H]5C(=O)NCc5cccnc5)[nH]4)ccc2-3)[nH]1)C(C)C (stereo partly drawn) [AA_241_A] | > 1 | 10 to 100 | 0.101 to 1 | –
6 | COC(=O)N[C@H](C(=O)N1CCC[C@H]1c1ncc(-c2ccc(-c3ccc(-c4cnc(C5C6CCC(C6)[C@H]5C(=O)Nc5ccccc5)[nH]4)cc3)cc2)[nH]1)[C@@H](C)OC (stereo partly drawn) [AA_246_B] | > 1 | 10 to 100 | 0.101 to 1 | –
7 | COC(=O)N[C@H](C(=O)N1CCC[C@H]1c1ncc(-c2ccc(-c3ccc(-c4cnc(C5CC(F)(F)C[C@H]5C(=O)N(NC(=O)OC)C(C)C)[nH]4)cc3)cc2)[nH]1)C(C)C (stereo partly drawn) [AA_138] | > 100 | 10 to 100 | 1 to 10 | –
8 | COC(=O)N[C@H](C(=O)N1CCC[C@H]1c1ccc(-c2ccc(-c3ccc(-c4cnc([C@H](C)NC(=O)[C@@H](NC(=O)OC)[C@@H](C)OC)[nH]4)cc3)cc2)[nH]1)C(C)OC (stereo partly drawn) [AG_112] | > 1 | 1 to 10 | 0.001 to 0.1 | –
9 | COC(=O)N[C@H](C(=O)N1CCC[C@H]1c1ccc(-c2ccc(-c3ccc(-c4cnc([C@@H]5CC6(CCCC6)CN5C(=O)[C@@H](NC(=O)OC)[C@@H](C)OC)[nH]4)cc3)cc2)[nH]1)[C@@H](C)OC [AG_110] | > 1 | 0.101 to 1 | 0.001 to 0.1 | –
10 | COC(=O)N[C@H](C(=O)N1CCCC1c1ncc(-c2ccc3c(c2)oc2cc(-c4ccc([C@@H]5CCCN5C(=O)[C@@H](NC(=O)OC)[C@@H](C)OC)[nH]4)ccc23)[nH]1)[C@@H](C)OC (stereo partly drawn) [AG_103] | > 1 | 1 to 10 | 0.001 to 0.1 | –
11 | COC(=O)N[C@H](C(=O)N1CCC[C@H]1c1ncc(-c2ccc(-c3ccc(-c4cnc(C5C6CCC(C6)[C@H]5C(=O)N(NC(=O)OC)C(C)C)[nH]4)cc3)cc2)[nH]1)C(C)C (stereo partly drawn) [AA_121_B] | > 10 | 1 to 10 | – | 0.001 to 0.1
12 | COC(=O)N[C@H](C(=O)N1CCC[C@H]1c1ncc(-c2ccc(-c3ccc(-c4cnc([C@@H]5C6CCC(C6)[C@H]5C(=O)NCc5ccc(F)nc5)[nH]4)cc3)cc2)[nH]1)C(C)C (stereo partly drawn) [AA_214_B] | > 1 | 10 to 100 | 0.001 to 0.1 | –
13 | COC[C@H](NC(=O)OC)C(=O)N1CCC[C@H]1c1ccc(-c2ccc(-c3ccc(-c4cnc([C@@H]5CCCN5C(=O)[C@@H](NC(=O)OC)[C@@H](C)O)[nH]4)cc3)cc2)[nH]1 [AG_108] | > 1 | 0.101 to 1 | 0.001 to 0.1 | –
14 | COC(=O)N[C@H](C(=O)N1CCC[C@H]1c1ncc(-c2ccc(-c3ccc(-c4cnc(C5C6CCC(C6)[C@@H]5C(=O)Nc5ccccc5)[nH]4)cc3)cc2)[nH]1)[C@@H](C)OC (stereo partly drawn) [AA_246_A] | > 1 | 10 to 100 | 0.001 to 0.1 | –
15 | COC(=O)N[C@H](C(=O)N1CCC[C@H]1c1ncc(-c2ccc(-c3ccc(-c4cnc([C@H]5CCCC[C@@H]5C(=O)NC5(c6cccnc6)CC5)[nH]4)cc3)cc2)[nH]1)C(C)C [AA_186] | > 5 | 1 to 10 | 0.101 to 1 | –
16 | COC(=O)N[C@H](C(=O)N1CCC[C@@H]1c1[nH]c(-c2ccc(-c3ccc(-c4cnc([C@@H]5CCCN5C(=O)[C@@H](NC(=O)OC)[C@@H](C)OC)[nH]4)cc3)cc2)c2c1COC2)C(C)OC (stereo partly drawn) [AG_080_B] | > 5 | 1 to 10 | 0.101 to 1 | –
17 | COC(=O)N[C@H](C(=O)N1CCC[C@H]1c1ncc(-c2ccc(-c3ccc(-c4cnc([C@@H]5C6CCC(C6)[C@H]5C(=O)NCc5cccnc5F)[nH]4)cc3)cc2)[nH]1)C(C)C (stereo partly drawn) [AA_224_B] | > 1 | 1 to 10 | 0.001 to 0.1 | –
18 | COC(=O)N[C@H](C(=O)N1CCC[C@H]1c1ncc(-c2ccc(-c3ccc(-c4cnc(C5C6CCC(C6)[C@H]5C(=O)NCc5cnccn5)[nH]4)cc3)cc2)[nH]1)[C@@H](C)OC (stereo partly drawn) [AA_268_B] | > 1 | 1 to 10 | 0.001 to 0.1 | –
19 | COC(=O)N[C@H](C(=O)N1CCC[C@H]1c1ncc(-c2ccc(-c3ccc(-c4cnc(C5C6CCC(C6)[C@@H]5C(=O)NCc5ccc(C(F)(F)F)nc5)[nH]4)cc3)cc2)[nH]1)[C@@H](C)OC (stereo partly drawn) [AA_264_A] | > 1 | 1 to 10 | 0.101 to 1 | –
20 | COC(=O)N[C@H](C(=O)N1CCC[C@H]1c1[nH]c(-c2ccc(-c3ccc(-c4[nH]c([C@@H]5CCCN5C(=O)[C@@H](NC(=O)OC)C(C)C)c5c4CCC5)cc3)cc2)c2c1CCC2)C(C)C [AG_026_A] | > 10 | 10 to 100 | 0.101 to 1 | –
21 | COC(=O)NC(C(=O)N1CCC[C@@H]1c1[nH]c(-c2ccc(-c3ccc(-c4cnc([C@@H]5CCCN5C(=O)[C@@H](NC(=O)OC)[C@@H](C)OC)[nH]4)cc3)cc2)c2c1CCC2)[C@@H](C)OC (stereo partly drawn) [AG_068_B] | > 1 | 10 to 100 | 0.101 to 1 | –
22 | COC(=O)NC(C(=O)N1CCC[C@H]1c1ncc(-c2ccc(-c3ccc(-c4cnc(C5CCCC[C@@H]5C(=O)N(NC(=O)OC)C(C)C)[nH]4)cc3)cc2)[nH]1)C1CCOC1 (stereo partly drawn) [AA_122] | > 100 | 10 to 100 | 0.101 to 1 | –
23 | COC(=O)N[C@H](C(=O)N1CCC[C@H]1c1ncc(-c2ccc(-c3ccc(-c4cnc(C5C6CCC(C6)[C@@H]5c5nc(-c6cccnc6)c[nH]5)[nH]4)cc3)cc2)[nH]1)C(C)C (stereo partly drawn) [AA_242] | > 1 | 10 to 100 | 0.101 to 1 | –
24 | COC[C@H](NC(=O)OC)C(=O)N1CCC[C@H]1c1ncc(-c2ccc(-c3ccc(-c4[nH]c([C@@H]5CCCN5C(=O)[C@@H](NC(=O)OC)C(C)OC)c5c4COC5)cc3)cc2)[nH]1 (stereo partly drawn) [AG_113] | > 1 | 0.101 to 1 | 0.001 to 0.1 | –
25 | COC(=O)N[C@H](C(=O)N1CCCC[C@H]1c1ncc(-c2ccc(-c3ccc(-c4[nH]c([C@@H]5CCCN5C(=O)[C@@H](NC(=O)OC)C(C)OC)c5c4COC5)cc3)cc2)[nH]1)C(C)C (stereo partly drawn) [AG_123] | > 1 | 1 to 10 | 0.001 to 0.1 | –
26 | COC(=O)N[C@H](C(=O)N1CCC[C@H]1c1ncc(-c2ccc(-c3ccc(-c4cnc([C@H]5C6CCC(C6)[C@@H]5C(=O)NCc5cccnc5O)[nH]4)cc3)cc2)[nH]1)C(C)C (stereo partly drawn) [AA_228] | > 1 | 1 to 10 | 0.001 to 0.1 | –
27 | COC(=O)N[C@H](C(=O)N1CCC[C@H]1c1cnc(-c2ccc(-c3ccc(-c4ncc(C5C6CCC(C6)[C@H]5C(=O)N(NC(=O)OC)C(C)C)[nH]4)cc3)cc2C)[nH]1)C(C)C (stereo partly drawn) [AA_169_A] | > 5 | 1 to 10 | 0.001 to 0.1 | –
28 | COC[C@H](NC(=O)OC)C(=O)N1CCC[C@H]1c1ncc(-c2ccc(-c3ccc(-c4ccc([C@@H]5CCCN5C(=O)[C@@H](NC(=O)OC)C(C)C)[nH]4)cc3)cc2)[nH]1 [AG_100] | > 1 | 0.101 to 1 | 0.001 to 0.1 | –
29 | COC(=O)N[C@H](C(=O)N1CCC[C@H]1c1ncc(-c2ccc(-c3ccc(-c4cnc([C@H]5C6CCC(C6)[C@@H]5C(=O)NCc5ccc(N)cc5)[nH]4)cc3)cc2)[nH]1)[C@@H](C)OC (stereo partly drawn) [AA_227] | > 1 | 10 to 100 | 0.101 to 1 | –
